According to PMC8396344, “Palmitoylation of Prolactin-Releasing Peptide Increased Affinity for and Activation of the GPR10, NPFF-R2 and NPFF-R1 Receptors: In Vitro Study” (International Journal of Molecular Sciences, 2021):
No end group written: not given here.

Legend:
Y1 = molecular target: T1, Y1 (Homo sapiens, UniProt P25929); experiment: Competitive and saturation binding, [^125I]-PYY, U2OS cells with Y1
T1 construct: host or cells: U2OS
T1 sequence (P25929 1-384): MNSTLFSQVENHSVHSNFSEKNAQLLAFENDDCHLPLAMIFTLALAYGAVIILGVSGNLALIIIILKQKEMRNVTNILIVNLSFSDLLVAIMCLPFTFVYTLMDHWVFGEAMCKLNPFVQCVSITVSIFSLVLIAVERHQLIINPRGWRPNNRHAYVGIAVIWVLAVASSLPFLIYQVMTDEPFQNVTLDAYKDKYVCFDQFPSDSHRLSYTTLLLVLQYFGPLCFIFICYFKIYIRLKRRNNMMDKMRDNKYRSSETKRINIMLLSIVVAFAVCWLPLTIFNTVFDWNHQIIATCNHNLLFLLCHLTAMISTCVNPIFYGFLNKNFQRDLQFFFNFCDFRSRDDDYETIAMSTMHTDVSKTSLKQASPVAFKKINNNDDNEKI
Description: (§1) Competition binding experiments were performed according to [45]. […] Binding experiments using U2OS cells were optimized and performed in assay buffer (50 mM Tris-Cl pH 7.4, 118 mM NaCl, 5 mM MgCl2, 4.7 mM KCl, 0.1% BSA) for cells stably expressing GHSR and (25 mM HEPES, 120 mM NaCl, 5 mM MgCl2, 4.7 mM KCl, 1 mM CaCl2, 0.5% BSA, 2 g/L glucose) for cells containing receptors Y1, Y2 and Y5. […] Cells were incubated for 60 min at room temperature (RT).
(§2) Experiments were carried out in duplicate at least three times, and Ki was calculated using the Cheng-Prusoff equation.
(§3) Data were analyzed by GraphPad Software (San Diego, CA, USA) and are presented as the means ± SEM. The saturation and competitive binding experiments were analyzed according to [46] using the Cheng-Prusoff equation [33]. The competitive binding curves were plotted compared to the best fit for single-binding site models, and half maximal inhibitory concentration (IC50) values were obtained from nonlinear regression analysis. From saturation binding experiments, the dissociation constant (Kd) and number of binding sites/cell (Bmax) were calculated. Inhibition constants (Ki) were calculated from IC50 values, Kd and the concentration of radioligands.

Y5 [1] = molecular target: T2, Y5 (Homo sapiens, UniProt Q15761); experiment: Beta-lactamase reporter gene assay (FRET), Y5; format: cell-based
T2 construct: host or cells: U2OS
T2 sequence (Q15761 1-445): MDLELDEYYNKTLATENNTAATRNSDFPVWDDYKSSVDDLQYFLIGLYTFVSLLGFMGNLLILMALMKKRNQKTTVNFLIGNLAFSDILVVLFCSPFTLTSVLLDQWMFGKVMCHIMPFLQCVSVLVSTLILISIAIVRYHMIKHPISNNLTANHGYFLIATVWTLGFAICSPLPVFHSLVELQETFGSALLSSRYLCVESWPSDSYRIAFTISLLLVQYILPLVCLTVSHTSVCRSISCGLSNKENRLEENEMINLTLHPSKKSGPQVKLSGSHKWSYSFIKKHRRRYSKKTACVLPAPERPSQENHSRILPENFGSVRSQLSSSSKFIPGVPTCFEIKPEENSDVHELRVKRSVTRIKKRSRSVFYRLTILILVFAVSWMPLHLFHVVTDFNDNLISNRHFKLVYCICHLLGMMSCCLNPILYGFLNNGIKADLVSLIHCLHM

ORL-1 = molecular target: T3, ORL-1 (Homo sapiens, UniProt P41146); experiment: Beta-lactamase reporter gene assay (FRET), ORL-1; format: cell-based; details: β-lactamase assay, agonist mode, U2OS cells; mean ± SEM, 2–3 independent experiments in duplicates
T3 construct: host or cells: U2OS

GHSR = molecular target: T4, GHSR (Homo sapiens, UniProt Q92847); experiment: Competitive and saturation binding, [^125I]-ghrelin, U2OS cells with GHSR
T4 construct: host or cells: U2OS
Description: as §1, §2, §3

Y2 = molecular target: T5, Y2 (Homo sapiens, UniProt P49146); experiment: Competitive and saturation binding, [^125I]-PYY, U2OS cells with Y2
T5 construct: host or cells: U2OS
T5 sequence (P49146 1-381): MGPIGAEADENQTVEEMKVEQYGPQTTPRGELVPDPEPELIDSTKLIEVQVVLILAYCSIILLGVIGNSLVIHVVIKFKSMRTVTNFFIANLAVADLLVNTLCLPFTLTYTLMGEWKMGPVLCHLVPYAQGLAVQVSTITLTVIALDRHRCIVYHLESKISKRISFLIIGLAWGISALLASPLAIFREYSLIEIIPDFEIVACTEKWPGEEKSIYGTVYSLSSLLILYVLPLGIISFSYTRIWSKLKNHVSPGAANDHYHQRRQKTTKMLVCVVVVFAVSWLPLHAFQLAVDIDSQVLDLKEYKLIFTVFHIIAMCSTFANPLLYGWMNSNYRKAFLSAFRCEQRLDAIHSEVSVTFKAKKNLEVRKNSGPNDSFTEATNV
Description: as §1, §2, §3

KOR = molecular target: T6, KOR (Homo sapiens, UniProt P41145); experiment: Competitive and saturation binding, [^125I]-dynorphin, membranes of CHO-K1 cells with KOR; details: competition with [^125I]-dynorphin A, CHO-K1 membranes 5 µg protein/tube, 60 min RT; mean ± SEM, 2–5 independent experiments in duplicates; Cheng-Prusoff
T6 construct: host or cells: CHO-K1
Description: Pellets of CHO-K1 cells containing NPFF-R2, NPFF-R1 and KOR receptors were homogenized in ice-cold homogenizing buffer (20 mM HEPES pH 7.1, 5 mM MgCl2, 0.7 mM bacitracin) with a DIAX 100 Homogenizer (Heidolph Instruments, Schwabach, Germany) and centrifuged in an ultracentrifuge (Beckman Coulter, Fullerton, CA, USA) at 26,000× g for 15 min at 4 °C. The pellets were homogenized in ice-cold homogenization buffer, and the previous steps were repeated 2 more times. After the third centrifugation, pellets were resuspended in ice-cold storage buffer (50 mM Tris-Cl pH 7.4, 0.5 mM EDTA, 10 mM MgCl2, 10% sucrose), and aliquots were stored at −80 °C. The concentration of isolated membrane proteins was determined by a PierceTM BCA Protein Assay Kit (Pierce, Rockford, IL, USA). […]
as §2
as §3, with “The competitive binding curves were plotted compared to the best fit for single-binding site models, and half maximal inhibitory concentration (IC50) values were obtained from nonlinear regression analysis.” left out

DOR = molecular target: T7, DOR (Homo sapiens, UniProt P41143); experiment: Beta-lactamase reporter gene assay (FRET), DOR; format: cell-based; details: β-lactamase assay, agonist mode, U2OS cells; mean ± SEM, 2–3 independent experiments in duplicates
T7 construct: host or cells: U2OS

MOR = molecular target: T8, MOR (Homo sapiens, UniProt P35372); experiment: Beta-lactamase reporter gene assay (FRET), MOR; format: cell-based
T8 construct: host or cells: U2OS

Y5 [2] = molecular target: T2, Y5; experiment: Competitive and saturation binding, [^125I]-PYY, U2OS cells with Y5
Description: as §1, §2, §3

SRAHQHSMETRTPDINPAWYTGRGIRPVGRF-NH2 [PrRP31, prolactin-releasing peptide 31, reference compound]
Ki (Y1): > 10 µM | EC50 (Y5 [1]): > 10 µM | EC50 (ORL-1): > 10 µM | Ki (GHSR): > 10 µM | Ki (Y2): > 10 µM | Ki (KOR): > 10 µM | EC50 (DOR): > 10 µM | EC50 (MOR): > 10 µM | Ki (Y5 [2]): 2.86 ± 0.043 µM

CCCCCCCCCCCCCCCC(=O)N[C@@H](CO)C(=O)N[C@@H](CCCNC(=N)N)C(=O)N[C@H](C(=O)N[C@@H](Cc1c[nH]cn1)C(=O)N[C@@H](CCCNC(=N)N)C(=O)N[C@@H](Cc1c[nH]cn1)C(=O)N[C@@H](CO)C(=O)N[C@@H](CCSC)C(=O)N[C@@H](CCC(=O)O)C(=O)N[C@H](C(=O)N[C@@H](CCCNC(=N)N)C(=O)N[C@H](C(=O)N1CCC[C@H]1C(=O)N[C@@H](CC(=O)O)C(=O)N[C@H](C(=O)N[C@@H](CC(N)=O)C(=O)N1CCC[C@H]1C(=O)N[C@@H](C)C(=O)N[C@@H](Cc1c[nH]c2ccccc12)C(=O)N[C@@H](Cc1ccc(O)cc1)C(=O)N[C@@H](C)C(=O)N[C@@H](CO)C(=O)N[C@@H](CCCNC(=N)N)C(=O)NCC(=O)N[C@H](C(=O)N[C@@H](CCCNC(=N)N)C(=O)N1CCC[C@H]1C(=O)N[C@H](C(=O)NCC(=O)N[C@@H](CCCNC(=N)N)C(=O)N[C@@H](Cc1ccccc1)C(N)=O)C(C)C)[C@@H](C)CC)[C@@H](C)CC)[C@@H](C)O)[C@@H](C)CC)[C@@H](C)O [Palm-PrRP31]
Ki (Y1): 3.147 ± 0.031 µM | EC50 (Y5 [1]): 0.0565 ± 0.0184 µM | EC50 (ORL-1): > 10 µM | Ki (GHSR): 0.16 ± 0.016 µM | Ki (Y2): > 10 µM | Ki (KOR): 0.106 ± 0.015 µM | EC50 (DOR): > 10 µM | EC50 (MOR): > 10 µM | Ki (Y5 [2]): 0.0326 ± 0.00616 µM
